{"source": "patent US20190136321A1", "about": "“USE OF TRANSLATIONAL PROFILING TO IDENTIFY TARGET MOLECULES FOR THERAPEUTIC TREATMENT” (The Regents of The University of California, priority 2013, published 2019)", "key": {"[1]": {"test_system": "Normal human lung fibroblasts", "test": "Procollagen Type 1 C-Peptide (PIP EIA) in TGF-β treated fibroblasts", "format": "cell-based", "conditions": "10 ng/ml TGF-β, 24 hours", "protocol": "Normal human lung fibroblasts (Lonza #CC-2512) were cultured in DMEM+10% FBS supplemented with Penicillin, Streptomycin and Glutamax (Invitrogen) at 37° C. in a humidified incubator with 5% CO2. Cell passage numbers 2 through 5 were used for all experiments.\n(§1) On Day 0, fibroblasts were seeded and cultured under normal conditions overnight. On Day 1, media was removed, cells were washed with PBS and then incubated for 48 hrs in serum free media (DMEM supplemented with penicillin, streptomycin, and glutamax). On Day 3, media was removed and cells were cultured for 24 hrs with fresh serum free media ±PAMi and ±10 ng/ml TGF-β. After this 24 hour incubation, about 6×10^6 cells/10 cm plate and about 1×10^6 cells/well of a 6-well plate were used for ribosomal profiling and western blot analysis, respectively.\nCulture Media was collected, centrifuged to pellet cellular debris, and stored at −80° C. Procollagen Type 1 C-Peptide (PIPC) was quantified using the (PIP) EIA kit (Clontech Cat# MK101) according to manufacturer's instructions."}, "[2]": {"test_system": "Normal human lung fibroblasts", "test": "Ribosomal profiling of TGF-β treated fibroblasts", "format": "cell-based", "protocol": "as §1\nCells were washed with cold PBS supplemented with cycloheximide and lysed with 1× mammalian lysis buffer for 10 min on ice. Lysates were clarified by centrifugation for 10 min at 14,000 rpm and supernatants were collected. Cell lysates were processed to generate the ribosomal protected fragments and total mRNA according to the instructions included with the ARTseq Ribosome Profiling Kit. Sequencing of total RNA (RNA) and of ribosome-protected fragments of RNA (RPF) was carried out with standard Illumina rna seq methodology.\nRNA-seq reads were processed with tools from the FASTX-Toolkit (fastq_quality_trimmer, fastx_clipper and fastx_trimmer). Unprocessed and processed reads were evaluated for a variety of quality measures using FastQC. Processed reads were mapped to the human genome using Tophat. Gene-by-gene assessment of the number of fragments strictly and uniquely mapping to the coding region of each gene was conducted using HTSeq-count, a component of the HTSeq package. Differential analyses of the transforming effect of TGF-β on fibroblasts and effect of PAMi treatment on this transformation were carried out with the software packages DESeq for transcription (RNA counts) and translational rate (RPF counts) and BABEL for translational efficiency based upon ribosomal occupancy as a function of RNA level (RNA and RPF counts). Genes with low counts in either RPF or RNA were excluded from differential analyses. Pathway and network analyses of differential data was conducted using Ingenuity Pathway Analysis (IPA)."}}}
{"substance": "TGF-β", "values": [{"measurement": "increase in procollagen production", "setting": "[1]", "result": "approximately 7 fold"}, {"measurement": "genes in the pathway having an increase in translational efficiency", "setting": "[2]; fibroblasts treated with TGF-β, 141 pathway genes", "result": "118 of the 141"}, {"measurement": "mean translational efficiency of the 141 pathway-associated genes", "setting": "[2]; fibroblasts upon TGF-β treatment", "result": "−1.05 log 2 relative to population mean"}, {"measurement": "mean increase in translational efficiency, all genes in the pathway (printed: these 12 genes)", "setting": "[2]; fibroblasts, TGF-β", "result": 0.65, "unit": "log 2"}, {"measurement": "mean increase in translational efficiency, subset of 12 genes", "setting": "[2]; fibroblasts, TGF-β", "result": 1.3, "unit": "log 2"}]}
